# According to US8084602B2, “Porphyrin derivatives and their use in photodynamic therapy” (Destiny Pharma Limited, priority 2002, dated 2011):
# Assays:
# [1] = test system: S. aureus ATCC BAA-44 (a methicillin resistant S. aureus); test: Cell survival (colony forming unit) with or without illumination; format: cell-based, Staphylococcus aureus; settings: S. aureus
# Protocol: (§1) The toxic effects of exemplary compounds of the invention against two bacterial strains, the Gram negative bacterium Escherichia coli (strain ATCC 25922) and the Gram positive bacterium Staphylococcus aureus (methicillin-resistant strain ATTC BAA-44), were evaluated by measuring the extent of growth inhibition (bacteriostatic effect) and growth […] (cytocidal effect) in the dark and upon light exposure. Initial compound screening was undertaken using white light [390-740 nm] (150 mW/cm^2) for various timepoints of a concentration of 3 μM (see Table 1). Further experiments were undertaken on those compounds identified from this initial screen using a light source emitting light at a wavelength between 417-420 nm at 15.2 mW/cm^2, 13.68 J/cm^2 (Waldmann Eclairage SA, France) (see Table 20.
# (§2) For the further investigation of the exemplary compounds (Table 2), the following protocol was adopted: • (i) Bacteria (S. aureus BAA-44 and E. coli 25922) were grown in brain heart infusion (BHI) broth until they reached the stationary phase of growth. • (ii) The cells were harvested by centrifugation (3000 g for 15 min) with a table centrifuge, washed with 10 mM PBS at pH 7.4 containing 2.7 mM KCl and 0.14 M NaCl and suspended in PBS at an optical density of 0.7 at 650 nm corresponding to 10^8-10^9 cells/ml. • (iii) The bacteria, at the desired cell density (˜10^8 cells/ml) were incubated for 5 min in the dark with various concentrations of the exemplary compounds. • (iv) At the end of the incubation period the cells were washed three times with PBS, suspended in PBS, transferred into a 96-well microtitre plate (200 μl/well) and illuminated for 15 min with the Waldmann light source (15.2 mW/cm^2; 13.7 J/cm^2). The cells were illuminated from the bottom of the plate laying it on the glass cover of the lamp. • (v) After illumination, cell survival was determined by plating serially diluted aliquots of treated and untreated (i.e. no exemplary compound or light present) cells onto brain heart agar (BHA) and counting the number of colonies after 18-24 h incubation at 37° C.
# (§3) the above colony forming unit (CFU) protocol was also used to investigate the photodynamic activity of very low concentrations of the compounds of the invention.
# [2] = Chemical stability, qualitative stress tests (HPLC, LC-MS); format: physicochemical; settings: solid, aqueous solution and PBS; 7 days each at 50° C., 70° C., 90° C.
# Protocol: The following HPLC methodology was established for the analysis of the exemplary compounds of the invention.
# The method involves detection by UV at a wavelength of 420 nm, which is very specific for these compounds. In order to monitor impurities not related to the porphyrin structure (and therefore not absorbing at 420 nm) UV spectra of the whole chromatograms were also recorded between 200 nm and 700 nm by DAD (diode array detector) in certain experiments.
# Qualitative stress tests were undertaken on the exemplary compounds of the invention. Analysis was undertaken by HPLC & LC-MS. The compounds were stress tested in solid form, in an aqueous solution and a solution made up in phosphate-buffered saline buffer. The samples were initially incubated for 7 days at 50° C. and a sample removed for testing. The samples were then incubated for a further 7 days at 70° C., samples removed as before and the samples incubated further for 7 days at 90° C. HPLC analysis of freshly prepared solutions was undertaken and compared to the samples after 7, 14 and 21 days incubation. A visual comparison of the chromatograms was then undertaken and the content of the main products and by-products as area percentage values determined (see FIG. 11).
# [3] = test system: bacterial cells compared to human skin cells; test: Selectivity for bacteria compared to human skin cells; format: cell-based; settings: at a dose of 0.1 μM
# Protocol: as §2
# (§4) Test compounds were screened for toxicity against cultured human skin cells using normal human epidermal keratinocytes (NHEK) and normal human dermal fibroblasts (NHDF), purchased from CellSystems Biotechnologie GmbH, Germany.
# The NHEK and NHDF cells were used between passages 3 and 10. The cells were seeded with 7.5 and/or 15×10^4 cells/well (microtitreplate) and allowed to attach overnight in an incubator (37° C., 5% CO2). After incubation with different concentrations of the selected photosensitisers, the cells were illuminated for fifteen minutes (Light source 236, Waldmann; 15.2 mW/cm^2, 13.7 J/cm^2) and then incubated for 24 hours in the dark.
# (§5) Phototoxicity was tested by standard MTT-assay (Mossman et al., 1983, Immunological Methods 65:55-63). MTT is an indicator of metabolically active cells. Dependent on enzyme activity in mitochondria a colour reaction can be visualised, which can be measured by ELISA reader (540 nm). The cell viability data were normalised, i.e. the OD values of cells after PDT without photosensitisers were adjusted to one. Each experiment was repeated three times.
# [4] = test system: normal human dermal fibroblasts (NHDF); test: Toxicity against human skin cells, MTT-assay; format: cell-based
# Protocol: as §4
# (§6) The NHEK and NHDF cells were used between passages 3 and 10. The cells were seeded with 7.5 and/or 15×10^4 cells/well (microtitreplate) and allowed to attach overnight in an incubator (37° C., 5% CO2). […]
# as §5
# [5] = test system: normal human epidermal keratinocytes (NHEK); test: Toxicity against human skin cells, MTT-assay; format: cell-based
# Protocol: as §4, §6, §5
# E. coli ATCC 25922 = test: Cell survival (colony forming unit) with or without illumination; format: cell-based, Escherichia coli; settings: E. coli
# Protocol: as §1, §2, §3
# [6] = dark toxicity (no illumination), 1 μM
# [7] = photodynamic activity, 1 μM, illumination 15 min
# [8] = dark toxicity, 1 μM, no illumination
# [9] = dark toxicity, 10 μM, no illumination
# [10] = photodynamic activity (light toxicity), 0.01 μM, illumination 15 min
# [11] = photodynamic activity (light toxicity), 0.1 μM, illumination 15 min
# [12] = photodynamic activity (light toxicity), 1 μM, illumination 15 min
smiles,measurement,setting,value
"C[N+](C)(C)CCCOc1cccc(-c2c3nc(cc4ccc([nH]4)c(-c4cccc(OCCC[N+](C)(C)C)c4)c4nc(cc5ccc2[nH]5)C=C4)C=C3)c1.[Cl-].[Cl-] [Compound 12, 5,15-bis-[3-(3-trimethylammonio-propyloxy)-phenyl]-porphyrin dichloride]",Log reduction,[1]; [6],<1 (<10^−1)
same,Log reduction,"[1]; photodynamic activity, 0.005 μM, illumination 15 min",<2 (<10^−2)
same,Log reduction,"[1]; photodynamic activity, 0.1 μM, illumination 15 min",>3 (>10^−3)
same,Log reduction,[1]; [7],>6 (>10^−6)
same,chemical stability under stress test,[2],good stability
same,toxicity to bacterial cells compared to human skin cells,[3],preferentially toxic to bacterial cells compared to human skin cells
same,Survival,[4]; [8],100%
same,Survival,[4]; [9],95%
same,Survival,[4]; [10],100%
same,Survival,[4]; [11],85%
same,Survival,[4]; [12],1.0%
same,Survival,[5]; [8],100%
same,Survival,[5]; [9],92%
same,Survival,[5]; [10],97%
same,Survival,[5]; [11],75%
same,Survival,[5]; [12],0.5%
same,Log reduction,E. coli ATCC 25922; [6],<1 (<10^−1)
same,Log reduction,"E. coli ATCC 25922; photodynamic activity, 0.5 μM, illumination 15 min",<1 (<10^−1)
same,Log reduction,E. coli ATCC 25922; [7],>6 (>10^−6)
